Marks after values point to notes of the source that are not given here.
Columns and labels:
[1] = tested on: type 2 diabetic mouse (db/db) model; experiment: Efficacy study in db/db mice at 10 nM/kg dose (blood glucose, body weight, food intake); format: in vivo
Experimental: The effect of compounds of present invention on blood glucose, food intake and body weight was studied in mice. This study was performed in a type 2 diabetic mouse (db/db) model. […] Baseline blood glucose was measured from all the animals. […] All the animals were administered with test items subcutaneously. […] Delta blood glucose (mM) was calculated.

[2] = tested on: type 2 diabetic mouse (db/db) model; experiment: Efficacy study in db/db mice at 3 and 20 nM/kg dose (blood glucose, body weight, food intake); format: in vivo
Experimental: The effect of compounds of present invention on blood glucose, food intake and body weight was studied on mice. This study was performed in type 2 diabetic mouse (db/db) model. […] Baseline blood glucose was measured from all the animals. All animals were administered with test items subcutaneously. […] Delta blood glucose (mM) was calculated. Body weight changes and cumulative food consumption was measured at 72 hr post treatment.

[3] = Study 1, db/db mice, 10 nM/kg s.c.
[4] = Study 1, db/db mice, 10 nM/kg s.c., 48 hr
[5] = Study 1, db/db mice, 10 nM/kg s.c., 96 hr
[6] = Study 2, db/db mice, 10 nM/kg s.c. single dose
[7] = Study 2, db/db mice, 10 nM/kg s.c. single dose, 48 hr
[8] = Study 2, db/db mice, 10 nM/kg s.c. single dose, 96 hr
[9] = db/db mice, 10 nM/kg s.c., vs diabetic control

CCC[C@H](NC(=O)[C@@H](NC(=O)[C@H](CO)NC(=O)[C@H](Cc1ccc(O)cc1)NC(=O)[C@H](CC(=O)O)NC(=O)[C@H](CO)NC(=O)[C@@H](NC(=O)[C@H](Cc1ccccc1)NC(=O)[C@@H](NC(=O)CNC(=O)[C@H](CCC(=O)O)NC(=O)C(C)(C)NC(=O)[C@@H](N)Cc1ccc(O)cc1)[C@@H](C)O)[C@@H](C)O)[C@@H](C)CC)C(=O)N[C@@H](CC(C)C)C(=O)N[C@@H](CC(=O)O)C(=O)N[C@@H](CCCCN)C(=O)N[C@H](C(=O)N[C@@H](C)C(=O)N[C@@H](CCC(N)=O)C(=O)N[C@@H](CCCCNC(=O)COCCOCCNC(=O)C(C)(C)NC(=O)CC[C@H](NC(=O)CCCCCCCCCCCCCCCCCCC(=O)O)C(=O)O)C(=O)N[C@@H](C)C(=O)N[C@@H](Cc1ccccc1)C(=O)N[C@H](C(=O)N[C@@H](CCC(N)=O)C(=O)N[C@@H](Cc1c[nH]c2ccccc12)C(=O)N[C@@H](CC(C)C)C(=O)N[C@H](C(=O)N[C@@H](C)C(=O)NCC(=O)NCC(=O)N1CCC[C@H]1C(=O)N[C@@H](CO)C(=O)N[C@@H](CO)C(=O)NCC(=O)N[C@@H](C)C(=O)N1CCC[C@H]1C(=O)N1CCC[C@H]1C(=O)N1CCC[C@H]1C(=O)N[C@@H](CO)C(N)=O)[C@@H](C)CC)C(C)C)[C@@H](C)CC [Compound 1]
Cumulative food Intake (g) 0-48 hr. vs. Baseline, Mean [1, 3]: 7.5*** g | Cumulative food Intake (g) 0-96 hr. vs. Baseline, Mean [1, 3]: 13.9*** g | Delta Blood Glucose (mM) Mean ([1]; Study 1, db/db mice, 10 nM/kg s.c., 0 hr (baseline)): 0 mM | Delta Blood Glucose (mM) Mean ([1]; Study 1, db/db mice, 10 nM/kg s.c., 4 hr): −12.7*** mM | Delta Blood Glucose (mM) Mean ([1]; Study 1, db/db mice, 10 nM/kg s.c., 8 hr): −12.0*** mM | Delta Blood Glucose (mM) Mean ([1]; Study 1, db/db mice, 10 nM/kg s.c., 12 hr): −10.5*** mM | Delta Blood Glucose (mM) Mean ([1]; Study 1, db/db mice, 10 nM/kg s.c., 24 hr): −15.5*** mM | Body Wt. Change (%) 48 hr. vs. Baseline, Mean [1, 4]: −5.1*** % | Delta Blood Glucose (mM) Mean [1, 4]: −6.7*** mM | Delta Blood Glucose (mM) Mean ([1]; Study 1, db/db mice, 10 nM/kg s.c., 72 hr): −4.3*** mM | Body Wt. Change (%) 96 hr. vs. Baseline, Mean [1, 5]: −4.2*** % | Delta Blood Glucose (mM) Mean [1, 5]: −2.2*** mM | Cumulative food Intake (g) 0-48 hr. vs. Baseline, Mean [1, 6]: 3.8*** g | Cumulative food Intake (g) 0-96 hr. vs. Baseline, Mean [1, 6]: 12.5*** g | Delta Blood Glucose (mM) Mean ([1]; Study 2, db/db mice, 10 nM/kg s.c. single dose, 0 hr (baseline)): 0 mM | Delta Blood Glucose (mM) Mean ([1]; Study 2, db/db mice, 10 nM/kg s.c. single dose, 4 hr): −10.0*** mM | Delta Blood Glucose (mM) Mean ([1]; Study 2, db/db mice, 10 nM/kg s.c. single dose, 8 hr): −13.5*** mM | Delta Blood Glucose (mM) Mean ([1]; Study 2, db/db mice, 10 nM/kg s.c. single dose, 12 hr): −12.3*** mM | Delta Blood Glucose (mM) Mean ([1]; Study 2, db/db mice, 10 nM/kg s.c. single dose, 24 hr): −11.5*** mM | Body Wt. Change (%) 48 hr. vs. Baseline, Mean [1, 7]: −5.1*** % | Delta Blood Glucose (mM) Mean [1, 7]: −7.9*** mM | Delta Blood Glucose (mM) Mean ([1]; Study 2, db/db mice, 10 nM/kg s.c. single dose, 72 hr): −4.3** mM | Body Wt. Change (%) 96 hr. vs. Baseline, Mean [1, 8]: −3.5*** % | Delta Blood Glucose (mM) Mean [1, 8]: -1.4 mM | effect on blood glucose reduction compared with tirzepatide ([1]; db/db mice, 10 nM/kg s.c., same concentration as tirzepatide): superior to tirzepatide | blood glucose reduction [1, 9]: statistically significant blood glucose reduction upto 96 hr post treatment | body weight reduction [1, 9]: statistically significant body weight reduction which was comparable to tirzepatide | reduction in food consumption [1, 9]: significant reduction in food consumption which was comparable to tirzepatide | glucose lowering effect ([2]; 3 nM/kg and 20 nM/kg s.c.): dose dependent improvement in glucose lowering effect upto 72 hours | glucose lowering effect compared with tirzepatide ([2]; 3 nM/kg and 20 nM/kg s.c.): superior to tirzepatide at similar dosage | Cumulative Food Intake (g), 0-72 hr, Mean ([2]; 3 nM/kg s.c.): 10.2*** g | Delta Blood Glucose (mM) Mean ([2]; 3 nM/kg s.c., 0 hr (baseline)): 0.0 mM | Delta Blood Glucose (mM) Mean ([2]; 3 nM/kg s.c., 4 hr): −8.9*** mM | Delta Blood Glucose (mM) Mean ([2]; 3 nM/kg s.c., 24 hr): −9.9*** mM | Delta Blood Glucose (mM) Mean ([2]; 3 nM/kg s.c., 48 hr): −5.8** mM | Body weight change (%) 72 hr vs. Baseline, Mean ([2]; 3 nM/kg s.c., 72 hr): −4.0*** % | Delta Blood Glucose (mM) Mean ([2]; 3 nM/kg s.c., 72 hr): -3.2 mM | Cumulative Food Intake (g), 0-72 hr, Mean ([2]; 20 nM/kg s.c.): 6.3*** g | Delta Blood Glucose (mM) Mean ([2]; 20 nM/kg s.c., 0 hr (baseline)): 0.0 mM | Delta Blood Glucose (mM) Mean ([2]; 20 nM/kg s.c., 4 hr): −13.7*** mM | Delta Blood Glucose (mM) Mean ([2]; 20 nM/kg s.c., 24 hr): −13.6*** mM | Delta Blood Glucose (mM) Mean ([2]; 20 nM/kg s.c., 48 hr): −14.0*** mM | Body weight change (%) 72 hr vs. Baseline, Mean ([2]; 20 nM/kg s.c., 72 hr): −6.2*** % | Delta Blood Glucose (mM) Mean ([2]; 20 nM/kg s.c., 72 hr): −7.9*** mM | effect on body weight ([2]; 3 and 20 nM/kg): significant, dose dependent and comparable to tirzepatide | effect on food intake ([2]; 3 and 20 nM/kg): significant, dose dependent and comparable to tirzepatide

Tirzepatide [reference compound]
Cumulative food Intake (g) 0-48 hr. vs. Baseline, Mean [1, 3]: 4.9*** g | Cumulative food Intake (g) 0-96 hr. vs. Baseline, Mean [1, 3]: 13.0*** g | Body Wt. Change (%) 48 hr. vs. Baseline, Mean [1, 4]: −4.2*** % | Body Wt. Change (%) 96 hr. vs. Baseline, Mean [1, 5]: −2.8*** % | Cumulative Food Intake (g), 0-72 hr, Mean ([2]; 3 nM/kg s.c.): 9.6*** g | Body weight change (%) 72 hr vs. Baseline, Mean ([2]; 3 nM/kg s.c., 72 hr): −3.4*** % | Cumulative Food Intake (g), 0-72 hr, Mean ([2]; 20 nM/kg s.c.): 8.4*** g | Body weight change (%) 72 hr vs. Baseline, Mean ([2]; 20 nM/kg s.c., 72 hr): −4.9*** %

— patent US12622948B2 (SUN PHARMACEUTICAL INDUSTRIES LIMITED, priority 2020, dated 2026)
